The values below come from PMC6327951 (The Journal of organic chemistry, 2018).

pIC50: −log10 of the molar value. Entries after “also recorded” stand apart in the source; their conditions may differ. Like-named read-outs stand apart in the source and are kept apart here.

The target in assay [1] is T1, SpNanB (Streptococcus pneumoniae serotype 4, UniProt Q54727). To be noted: cited from earlier work.
The subject of assay [2] is SpNanA, SpNanB, SpNanC, PmST1, BiNanH2, AuSialidase, CpNanI, VcSialidase, hNEU2. Kind of assay: Sialidase inhibition assay at 1 mM, whole panel of sialidases tested. Type of assay: biochemical. To be noted: inhibitor 1 mM.
Assay [3] addresses T1, SpNanB. Nature of the assay: SpNanB-catalyzed hydrolysis assay. The format is biochemical. To be noted: 10 mM compound, SpNanB 1 mg/mL, NaOAc pH 6.0 or Tris-HCl pH 7.0, 24 h.
A further assay concerns IT-sialidase RgNanH. To be noted: cited from earlier work.
Assay [4] concerns the target T2, SpNanC (Streptococcus pneumoniae, UniProt A0A0H2UQE4). The conditions noted are these: cited from earlier work.
Assay [5] deals with T2, SpNanC. Kind of assay: Sialidase inhibition assay, 384-well colorimetric, Neu5Acα2–3GalβpNP substrate. The format is biochemical.
The next assay addresses AuSialidase (Paenarthrobacter ureafaciens, UniProt Q5W7Q2). Described as above. To be noted: inhibitor 1 mM. The format is biochemical, Arthrobacter ureafaciens.
For assay [6], the target named is T3, SpNanA (Streptococcus pneumoniae, UniProt P62575). The assay is described as above. The format is biochemical. To be noted: inhibitor 1 mM.
T3 sequence (P62575 54-1035): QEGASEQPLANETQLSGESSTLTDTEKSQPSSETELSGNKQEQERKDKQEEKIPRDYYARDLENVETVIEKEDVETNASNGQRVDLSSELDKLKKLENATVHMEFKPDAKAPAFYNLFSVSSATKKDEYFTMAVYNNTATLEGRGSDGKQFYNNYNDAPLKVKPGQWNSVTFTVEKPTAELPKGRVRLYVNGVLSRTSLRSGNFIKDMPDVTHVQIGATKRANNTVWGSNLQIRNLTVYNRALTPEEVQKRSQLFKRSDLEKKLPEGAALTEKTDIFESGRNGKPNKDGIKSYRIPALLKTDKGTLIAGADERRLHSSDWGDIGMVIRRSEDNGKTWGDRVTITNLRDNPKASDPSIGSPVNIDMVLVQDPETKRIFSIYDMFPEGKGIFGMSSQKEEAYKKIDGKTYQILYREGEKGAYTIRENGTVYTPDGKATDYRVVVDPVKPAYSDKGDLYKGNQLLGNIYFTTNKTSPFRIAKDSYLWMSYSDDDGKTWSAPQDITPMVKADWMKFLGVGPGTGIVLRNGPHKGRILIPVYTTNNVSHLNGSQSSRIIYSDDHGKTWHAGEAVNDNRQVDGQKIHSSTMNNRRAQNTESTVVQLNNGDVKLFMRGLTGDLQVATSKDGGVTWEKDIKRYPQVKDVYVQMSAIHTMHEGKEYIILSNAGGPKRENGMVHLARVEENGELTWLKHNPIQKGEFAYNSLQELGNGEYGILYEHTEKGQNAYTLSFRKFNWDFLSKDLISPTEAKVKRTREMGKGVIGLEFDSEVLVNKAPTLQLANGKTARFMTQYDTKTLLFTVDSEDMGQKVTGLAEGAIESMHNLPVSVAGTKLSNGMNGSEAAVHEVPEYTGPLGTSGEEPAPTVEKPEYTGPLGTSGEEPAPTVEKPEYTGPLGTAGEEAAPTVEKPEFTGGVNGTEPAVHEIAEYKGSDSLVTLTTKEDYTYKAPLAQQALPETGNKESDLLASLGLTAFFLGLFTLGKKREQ
For assay [7], the target named is T1, SpNanB. Described as above. The format is biochemical. The conditions noted are these: for Inhibitory activity against SpNanB: inhibitor 1 mM.
A further assay deals with VcSialidase (Vibrio cholerae serotype O1, UniProt P0C6E9). The description is as above. The format is biochemical.
VcSialidase, sequence (P0C6E9 25-781): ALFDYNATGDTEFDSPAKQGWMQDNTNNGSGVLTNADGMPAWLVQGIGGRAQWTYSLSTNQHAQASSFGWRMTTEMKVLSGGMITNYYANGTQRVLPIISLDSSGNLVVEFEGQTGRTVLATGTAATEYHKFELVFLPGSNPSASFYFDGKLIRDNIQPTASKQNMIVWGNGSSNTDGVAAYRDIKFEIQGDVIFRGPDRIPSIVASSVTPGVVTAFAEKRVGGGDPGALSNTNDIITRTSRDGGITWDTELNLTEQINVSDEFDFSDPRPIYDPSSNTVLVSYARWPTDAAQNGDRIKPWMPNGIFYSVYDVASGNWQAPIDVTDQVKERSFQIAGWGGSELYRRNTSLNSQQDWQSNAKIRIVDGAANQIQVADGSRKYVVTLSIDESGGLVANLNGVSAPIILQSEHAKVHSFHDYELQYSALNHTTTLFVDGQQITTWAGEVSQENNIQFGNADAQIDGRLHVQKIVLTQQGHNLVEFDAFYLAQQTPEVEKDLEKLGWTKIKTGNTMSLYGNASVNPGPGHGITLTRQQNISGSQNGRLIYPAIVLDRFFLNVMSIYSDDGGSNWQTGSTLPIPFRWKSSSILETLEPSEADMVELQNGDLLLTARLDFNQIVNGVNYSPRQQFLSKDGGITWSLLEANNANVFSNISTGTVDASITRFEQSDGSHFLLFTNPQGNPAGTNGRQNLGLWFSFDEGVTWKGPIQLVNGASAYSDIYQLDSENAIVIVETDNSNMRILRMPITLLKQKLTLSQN
In assay [8] the target is T3, SpNanA. The conditions noted are these: cited from earlier work.

T1 sequence (Q54727 30-697): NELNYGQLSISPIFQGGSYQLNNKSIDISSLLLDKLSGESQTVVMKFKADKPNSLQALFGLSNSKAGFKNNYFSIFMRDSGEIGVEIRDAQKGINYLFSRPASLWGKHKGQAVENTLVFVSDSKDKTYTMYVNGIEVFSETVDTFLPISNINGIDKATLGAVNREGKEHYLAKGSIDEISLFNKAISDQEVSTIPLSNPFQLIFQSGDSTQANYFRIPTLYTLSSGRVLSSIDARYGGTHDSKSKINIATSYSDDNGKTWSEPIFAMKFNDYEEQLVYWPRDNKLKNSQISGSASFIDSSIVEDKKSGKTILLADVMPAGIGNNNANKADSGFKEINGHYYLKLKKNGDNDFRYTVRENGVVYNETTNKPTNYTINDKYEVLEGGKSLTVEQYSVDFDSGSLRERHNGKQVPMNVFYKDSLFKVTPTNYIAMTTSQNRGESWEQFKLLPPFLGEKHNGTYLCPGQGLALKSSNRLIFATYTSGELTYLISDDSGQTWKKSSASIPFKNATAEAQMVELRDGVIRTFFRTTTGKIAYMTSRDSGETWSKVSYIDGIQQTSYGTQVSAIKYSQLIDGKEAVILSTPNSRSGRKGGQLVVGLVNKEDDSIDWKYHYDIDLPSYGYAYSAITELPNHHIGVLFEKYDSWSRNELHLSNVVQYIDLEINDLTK

`O=C(CCc1ccccc1)C[C@@H]1C[C@@H](c2ccccc2)c2c(cc(/C=C/c3ccccc3)oc2=O)O1` [katsumadain A]: the “Inhibition against SpNanB” value at SpNanB [1] is “reported to be inhibitors”.

As to `N[C@H]1[C@H]2O[C@@](C(=O)O)(C[C@@H]1O)O[C@@H]2[C@H](O)CO` [compound 3, 5-Amino-2,7-anhydro-3,5-dideoxy-α-D-glycero-D-galacto-non-2-ulopyranosonic acid], the “Inhibition against any sialidases tested” value in [2] was “no significant inhibition”.

For the compound `COc1cc2oc(-c3ccc(O)cc3O)c(CC=C(C)C)c(=O)c2c(O)c1/C=C/C(C)C` [artocarpin], the “Inhibition against SpNanB” value at SpNanB [1] was “reported to be inhibitors”.

Regarding `CC(=O)N[C@H]1[C@H]2O[C@@](C(=O)O)(C[C@@H]1O)O[C@@H]2[C@H](O)CO` [compound 1, 5-Acetamido-2,7-anhydro-3,5-dideoxy-α-D-glycero-D-galacto-non-2-ulopyranosonic acid], the “Hydrolysis by SpNanB” value on SpNanB [3] is recorded as “can be hydrolyzed by SpNanB; also recorded: most 2,7-anhydro-Neu5Ac (1) was converted to Neu5Ac”. Besides, in assay [2], the “Inhibition against any sialidases tested” value was “no significant inhibition”.

For the compound `CCOC(=O)C1=C[C@@H](OC(CC)CC)[C@H](NC(C)=O)[C@@H](N)C1` [Oseltamivir], the “Inhibition of RgNanH” value in the assay with IT-sialidase RgNanH is reported as “inhibited”. In addition, on SpNanC [4] (concentration up to 7.5 mM), the “Inhibitory activity against SpNanC” value is recorded as “did not show inhibitory activity”. Also, at SpNanB [1] (concentration up to 7.5 mM), the “Inhibitory activity against SpNanB” value is given as “did not show inhibitory activity”.

For the compound `O=S(=O)(O)CCNC1CCCCC1` [CHES, 2-N-Cyclohexylaminoethanesulfonic acid], at SpNanB [1], the “Inhibition against SpNanB” value was “weak inhibition”.

One may read the pIC50 as the negative decadic logarithm of the IC50, by convention in mol/L. On to `O=C(N[C@H]1[C@H]2O[C@@](C(=O)O)(C[C@@H]1O)O[C@@H]2[C@H](O)CO)C(F)(F)F` [compound 2, 2,7-Anhydro-3,5-dideoxy-5-trifluoroacetamido-α-D-glycero-D-galacto-non-2-ulopyranosonic acid], for which the pIC50 was less than 3.00 against SpNanC [5], 3.30 to 3.60 at SpNanB [7] and 3.00 to 3.30 on VcSialidase. In addition, the “Inhibitory activity against AuSialidase” value on AuSialidase is reported as “some inhibitory activity”. The “Inhibitory activity against SpNanA” value at SpNanA [6] was “some inhibitory activity”. Besides, the “Inhibitory activity against SpNanB” value at SpNanB [7] was “some inhibitory activity”. The “Inhibitory activity against VcSialidase” value on VcSialidase (inhibitor 1 mM) is “some inhibitory activity”.

Regarding `O=C(N[C@H]1[C@H]2O[C@@](C(=O)O)(C[C@@H]1O)O[C@@H]2[C@H](O)CO)C1CCCCC1` [compound 4, 2,7-Anhydro-5-cyclohexylamido-3,5-dideoxy-α-D-glycero-D-galacto-non-2-ulopyranosonic acid], the “Inhibitory activity against SpNanC” value at SpNanC [5] (inhibitor 1 mM) was “noticeable inhibitory activity”. The “Hydrolysis by SpNanB” value at SpNanB [3] was “resistant to SpNanB hydrolysis; also recorded: remained intact”. Besides, the “Inhibitory activity against SpNanA” value at SpNanA [6] was “noticeable inhibitory activity”. The “Inhibitory activity against SpNanB” value at SpNanB [7] is “noticeable inhibitory activity”.

Take `CC(=O)N[C@H]1[C@H]([C@H](O)[C@H](O)CO)OC(C(=O)O)=C[C@@H]1O` [Neu5Ac2en, 2,3-dehydro-2-deoxy-N-acetylneuraminic acid]: the “IC50 against SpNanC” value on SpNanC [4] is “submillimolar range”. Moreover, the “Inhibition against SpNanB” value on SpNanB [1] (other reports) is “millimolar inhibitor”.

Regarding `O=C(CCCCCCCCc1ccc(O)c(O)c1)c1c(O)cccc1O` [malabaricone C], the “IC50 against SpNanC” value on SpNanC [4] was “submicromolar range”. Besides, the “IC50 against SpNanB” value on SpNanB [1] is “submicromolar range”. Moreover, on SpNanA [8], the “IC50 against SpNanA” value is listed as “submicromolar range”.
